The target in experiment [1] is ELAV-like protein 1 (Homo sapiens) (UniProt Q15717). As to the kind of experiment: Binding affinity to HuR (unknown origin) assessed as positive STD factor by measuring interaction of protons of ring B and its methoxy group with protein at 400 uM in 100% D2O buffer by DEEP-STD NMR analysis.
For experiment [2] the target is unchanged. As to the kind of experiment: Binding affinity to HuR (unknown origin) assessed as interaction of ring A and protons 5 and 3 with apolar residues and projection of protons 16 and 9-10 with polar residues of protein at 400 uM in H2O:D2O (90:10) buffer by DEEP-STD NMR analysis.
Experiment [3] has the same target. Nature of the experiment: Binding affinity to HuR (unknown origin) assessed as negative STD factor by measuring interaction of protons 3, 9-10 and 16 with protein at 400 uM in 100% D2O buffer by DEEP-STD NMR analysis.
For experiment [4] the target is unchanged. As to the kind of experiment: Binding affinity to HuR (unknown origin) assessed as interaction of ring A and protons 16 with hydrophobic residues and projection of ring B and its methoxy group with polar residues of protein at 400 uM in H2O:D2O (90:10) buffer by DEEP-STD NMR analysis.

Active and inactive are the calls of the source. No cut-off for these calls is given here.

The values below come from ChEMBL document CHEMBL4613306, “BOPC1 Enantiomers Preparation and HuR Interaction Study. From Molecular Modeling to a Curious DEEP-STD NMR Application” (ACS Med Chem Lett, 2020).

Sequence of ELAV-like protein 1 (Homo sapiens) (Q15717 whole entry): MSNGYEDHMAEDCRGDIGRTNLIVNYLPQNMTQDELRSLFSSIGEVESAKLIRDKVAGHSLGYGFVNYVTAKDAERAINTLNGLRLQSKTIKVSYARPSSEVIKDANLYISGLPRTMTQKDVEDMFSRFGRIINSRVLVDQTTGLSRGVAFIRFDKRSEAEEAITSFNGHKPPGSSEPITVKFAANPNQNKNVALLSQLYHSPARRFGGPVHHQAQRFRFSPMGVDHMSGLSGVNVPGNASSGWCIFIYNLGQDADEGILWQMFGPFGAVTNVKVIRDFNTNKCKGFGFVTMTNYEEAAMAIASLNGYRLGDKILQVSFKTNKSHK

As to `COc1cc(OC)cc([C@@H]2[C@@H](C(=O)NCCNCc3ccccc3)CCC(=O)N2CC(C)C)c1`, the outcome in experiment [1] and in experiment [2] was Active.

Consider `COc1cc(OC)cc([C@H]2[C@H](C(=O)NCCNCc3ccccc3)CCC(=O)N2CC(C)C)c1`, for which the outcome in experiment [3] and in experiment [4] was Active.
